Structures can show the parent of a compound that is named as a salt.

For assay [1], the system named is sodium channels in cultured rat hippocampus. The settings on record: Patent document 1, Example 129; cited from earlier work.
Assay [2] relates to ectopic firing. Particulars: as described in Patent document 1, Example 129; cited from earlier work.
The target in assay [3] is T1, human Nav1.8 (Homo sapiens, UniProt Q9Y5Y9).
T1 construct: expressed in transfected cells
Briefly: Pharmacological effects on TTX-resistant Na channels in cells expressing human Nav1.8 gene (membrane potential dye, deltamethrin stimulation). It counts as cell-based. As to the method:
Pharmacological Effects on TTX-Resistant Na Channels in Cells Expressing Human Nav1.8 Gene
A cell line expressing human Nav1.8 gene was used to evaluate the pharmacological effects of compounds of the invention.
. A membrane potential-sensitive dye containing TTX (final concentration: 0.25 μM) was added to cells expressing human Nav1.8, prior to incubation at 37° C. for 30-60 minutes. • 2. The test compound was added to the cells, and the mixture was stationed for 15-30 minutes at room temperature while shielded from light. • 3. Deltamethrin (final concentration: 50 μM), a Nav1.8 channel stimulant, was added, and the change in fluorescence intensity due to increased membrane potential was measured. Pharmacological Evaluation
The Nav1.8 channel inhibition of the test compound was determined by the following equation. […] Test Results

T1 sequence (Q9Y5Y9 whole entry): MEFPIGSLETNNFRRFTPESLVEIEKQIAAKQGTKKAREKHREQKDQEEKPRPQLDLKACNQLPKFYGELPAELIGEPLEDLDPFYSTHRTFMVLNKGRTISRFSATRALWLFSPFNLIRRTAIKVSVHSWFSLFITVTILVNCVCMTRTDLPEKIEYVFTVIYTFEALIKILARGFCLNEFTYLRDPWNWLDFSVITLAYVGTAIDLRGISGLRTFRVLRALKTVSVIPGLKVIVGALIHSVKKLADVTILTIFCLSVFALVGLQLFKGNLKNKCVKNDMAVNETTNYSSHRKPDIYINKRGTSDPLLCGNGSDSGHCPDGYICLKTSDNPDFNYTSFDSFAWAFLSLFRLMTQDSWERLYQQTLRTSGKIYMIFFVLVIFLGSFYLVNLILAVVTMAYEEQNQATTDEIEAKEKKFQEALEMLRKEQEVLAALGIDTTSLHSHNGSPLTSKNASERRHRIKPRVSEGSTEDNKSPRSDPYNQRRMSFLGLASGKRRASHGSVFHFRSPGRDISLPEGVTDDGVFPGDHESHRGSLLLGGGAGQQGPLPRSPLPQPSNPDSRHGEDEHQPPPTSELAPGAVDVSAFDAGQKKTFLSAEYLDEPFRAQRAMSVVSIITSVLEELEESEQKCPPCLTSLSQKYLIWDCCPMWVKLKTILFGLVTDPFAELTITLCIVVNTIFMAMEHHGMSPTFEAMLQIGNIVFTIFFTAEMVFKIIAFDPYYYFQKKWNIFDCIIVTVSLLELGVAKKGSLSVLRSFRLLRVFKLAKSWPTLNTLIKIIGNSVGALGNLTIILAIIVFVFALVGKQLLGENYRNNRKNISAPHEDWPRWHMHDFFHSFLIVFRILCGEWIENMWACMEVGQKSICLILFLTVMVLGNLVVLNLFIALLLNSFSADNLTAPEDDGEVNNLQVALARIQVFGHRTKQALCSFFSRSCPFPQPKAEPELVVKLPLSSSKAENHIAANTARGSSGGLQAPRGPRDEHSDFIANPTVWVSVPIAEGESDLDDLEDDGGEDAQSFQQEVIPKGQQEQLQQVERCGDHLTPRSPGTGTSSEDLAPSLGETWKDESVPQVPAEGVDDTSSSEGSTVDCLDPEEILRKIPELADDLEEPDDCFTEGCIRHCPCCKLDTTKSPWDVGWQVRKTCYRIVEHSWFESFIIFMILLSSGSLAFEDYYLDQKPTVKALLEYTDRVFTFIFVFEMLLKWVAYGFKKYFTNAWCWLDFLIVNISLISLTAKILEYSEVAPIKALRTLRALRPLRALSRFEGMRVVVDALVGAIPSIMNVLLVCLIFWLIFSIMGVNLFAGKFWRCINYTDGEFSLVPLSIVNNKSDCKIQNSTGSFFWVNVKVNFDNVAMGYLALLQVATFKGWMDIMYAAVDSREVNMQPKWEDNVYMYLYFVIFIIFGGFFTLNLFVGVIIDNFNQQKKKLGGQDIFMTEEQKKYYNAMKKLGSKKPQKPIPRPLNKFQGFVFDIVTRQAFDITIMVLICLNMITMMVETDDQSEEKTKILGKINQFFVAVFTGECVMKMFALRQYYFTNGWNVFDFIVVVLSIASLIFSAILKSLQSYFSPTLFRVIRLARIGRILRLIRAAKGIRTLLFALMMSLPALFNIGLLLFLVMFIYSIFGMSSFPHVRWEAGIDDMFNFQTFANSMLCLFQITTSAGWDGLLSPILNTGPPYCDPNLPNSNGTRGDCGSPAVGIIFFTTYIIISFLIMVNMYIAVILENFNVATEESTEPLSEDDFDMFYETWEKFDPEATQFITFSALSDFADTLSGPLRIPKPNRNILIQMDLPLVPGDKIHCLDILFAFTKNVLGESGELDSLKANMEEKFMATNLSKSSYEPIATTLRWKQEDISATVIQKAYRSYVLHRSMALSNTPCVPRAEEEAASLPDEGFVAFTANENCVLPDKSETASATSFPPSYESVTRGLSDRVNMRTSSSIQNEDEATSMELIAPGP

For the compound `O=c1[nH]cccc1CN1CC2CCCC(C1)C2/C=C/c1ccccc1F` (stereo not shown), the “inhibitory activity against sodium channels” value in assay [1] is listed as “has an inhibitory activity”. Also, the “inhibitory activity against ectopic firing” value in assay [2] is “inadequate”.
As usually defined, the IC50 is the point on the concentration scale where inhibition reaches its midpoint. In turn, `CCn1c(C)nc(=O)n(C[C@H](O)CN2[C@@H]3CC[C@H]2C[C@@H](OCc2ccccc2CF)C3)c1=O` [Example 66, (Endo)-1-ethyl-3-{(R)-3-[3-(2-fluoromethylbenzyloxy)-8-azabicyclo[3.2.1]oct-8-yl]-2-hydroxypropyl}-6-methyl-1H-[1,3,5]triazine-2,4-dione oxalate] had an IC50 in assay [3] of 5.4 µM.
For `CNCCCN1c2ccccc2CCc2ccccc21` [desipramine], the Nav1.8 channel inhibition entry in assay [3] (30 μM desipramine, reference for complete inhibition under deltamethrin stimulation) was “completely inhibits”.

These data come from patent US8252810B2, “Bicycloamine derivatives” (Eisai R&D Management Co., Ltd., priority 2008, dated 2012).
